Measurements as given in patent EP1543832A2, “Use of trans-4[4-(3-chloro-4-methoxy-benzylamino) benzothieno[2,3-d]pyrimidin-2-yl]-cyclohexanecarboxylic acid in the treatment of extrapyramidal movement disorders” (MERCK PATENT GmbH, priority 2003, dated 2005).
Structures can show the parent of a compound that is named as a salt.

Assays:
tardive dyskinesia = experiment: Double-blind cross-over add-on study in tardive dyskinesia (AIMS); format: in vivo, schizophrenic (DSM-III-R) inpatients; conditions: add-on to antipsychotic treatment, 2.5 to 20 mg b.i.d., compared with placebo period
Text: Tardive dyskinesia is a common adverse effect of long-term treatment with neuroleptics. A typical study to investigate the efficacy of the compounds according to the invention in tardive dyskinesia is described in the following. 32 schizophrenic (DSM-III-R) inpatients aged 25 - 60 years on long-term stable antipsychotic treatment (duration of at least 5 years) entered the study. Trans-4-[4-(3-chloro-4-methoxybenzylamino)-benzothieno-[2,3-d]pyrimidin-2-yl]cyclohexanecarboxylic acid sodium or ethanolamine salt or placebo is administered as "add on" to the antipsychotic treatment, which is kept constant during the whole study. The dose of blinded medication is titrated over a period of 3 weeks in a range from 2.5 to 20 mg b.i.d. Then the medication is maintained under double-blind conditions for 2 weeks. After a 2-week wash-out period, the test drugs are crossed over. Assessments of tardive dyskinesia by means of the Abnormal Involuntary Movement Scale (AIMS, see obove) and of Parkinsonian extrapyramidal side effects (UPDRS, see above) are made pretreatment and posttreatment.

MSA patients = experiment: Placebo-controlled cross-over add-on study in MSA patients (UPDRS); format: in vivo; conditions: add-on 2.5 to 20 mg b.i.d. versus placebo
Text: A typical study to investigate the efficacy of the compounds according to the invention in MSA patients encompasses 30 patients of either sex with a symptom duration of at least 5 years and a significant reduction of central dopamine receptors in positron emission tomography (PET) scan. The study design is similar to that described above for Parkinson's disease. Trans-4-[4-(3-chloro-4-methoxybenzylamino)-benzothieno-[2,3-d]pyrimidin-2-yl]cyclohexanecarboxylic acid sodium or ethanolamine salt or placebo is titrated as "add on" to the conventional treatment (dose range 2.5 to 20 mg b.i.d.). Before the start of titration and at the end of the treatment period a complete UPDRS assessment is performed in each patient (primary outcome measure). After a 2-week wash-out period the two study arms are crossed over and the protocol is repeated.

[1] = tested on: idiopathic Parkinson's disease; experiment: Double-blind add-on study in idiopathic Parkinson's disease (UPDRS); format: in vivo, patients; conditions: add-on 2.5 to 10 mg b.i.d. versus placebo
Text: A typical study to investigate the efficacy of the compounds according to the invention in the treatment of idiopathic Parkinson's disease is described in the following. 180 patients of either sex with idiopathic Parkinson's disease participate in a double-blind study. The main inclusion criteria are Hoehn & Yahr stage ≥ 2.0 (Hoehn H.M. et al, Neurology 1967; 17: 427-442), aged 50-80 years, symptom duration of at least 5 years. Trans-4-[4-(3-chloro-4-methoxybenzylamino)-benzothieno-[2,3-d]pyrimidin-2-yl]cyclohexanecarboxylic acid or placebo is administered as "add on" to the conventional Parkinson treatment, which is maintained unchanged during the whole study. The dose of blinded medication is titrated over a period of 4 weeks in a range from 2.5 to 10 mg b.i.d. Then the medication is kept constant for 1 week. Before the start of titration, at the end of the treatment period and 2 weeks after the end of the tiration period an assessment is performed in each patients using the unified Parkinson's disease rating scale (UPDRS part I to V according to S. Fahn et al., in: Recent developments in Parkinson's disease, vol. 2, MacMillan health information 1987, 153-163). […]

[2] = tested on: advanced idiopathic Parkinson's disease complicated by "peak-dose" dyskinesia; experiment: Double-blind cross-over study, peak-dose dyskinesia after l-dopa challenge in advanced idiopathic Parkinson's disease; format: in vivo, patients; conditions: first hour in the "on" state after l-dopa challenge; add-on 2.5 to 10 mg b.i.d. versus placebo
Text: A typical study to investigate the efficacy of the compounds according to the invention for adverse effects in Parkinson's disease is described in the following. 40 patients of either sex with advanced idiopathic Parkinson's disease complicated by "peak-dose" dyskinesia participate in a double-blind, cross-over study. The main inclusion criteria are Hoehn & Yahr stage ≥ 2.5 (lit.: Hoehn H.M. et al, Neurology 1967; 17: 427-442), aged 40-75 years, symptom duration of at least 5 years, and a I-dopa treatment duration of at least 3 years. trans-4-[4-(3-chloro-4-methoxybenzylamino)-benzothieno-[2,3-d]pyrimidin-2-yl]cyclohexanecarboxylic acid sodium or ethanolamine salt or placebo is administered as "add on" to the conventional Parkinson treatment; which is maintained unchanged during the whole study. The dose of blinded medication is titrated over a period of 3 weeks in a range from 2.5 to 10 mg b.i.d. Then the medication is kept constant for 1 week. Before the start of titration and at the end of the treatment period a I-dopa challenge is performed according to P. Damier et al. (Movement Disord,1999, 14 (Suppl. 1), 54-59) using video recording. The main outcome measure of the protocol is the mean score for dyskinesia during the first hour in the "on" state after I-dopa challenge. […]

## COc1ccc(CNc2nc([C@H]3CC[C@H](C(=O)O)CC3)nc3sc4ccccc4c23)cc1Cl [trans-4-[4-(3-chloro-4-methoxybenzylamino)-benzothieno-[2,3-d]pyrimidin-2-yl]cyclohexanecarboxylic acid sodium or ethanolamine salt]
Tardive dyskinesia
  AIMS scores: significantly lower than during placebo period
MSA patients
  UPDRS: significant clinical improvement
[1]
  UPDRS scores: significant clinical improvement
[2]
  mean dyskinesia scores: significant clinical improvement
